Tested on: Nrf2
Test: Nrf2 activation in AREc32 cells (luciferase assay)
Format: cell-based
Settings: for Nrf2 activation fold increase wrt the control: note to Table 1, concentration not stated
Experimental: The AREc32 cells were obtained from CRX biosciences (Dundee, Scotland, UK). AREc32 cells were seeded into 96-well plates (flat-bottom white, opaque, sterile, with lids) at a density of 2×10^4, cells/well in 100 μL of complete media per well. Cell plates were then incubated at 37° C., 5% CO2 in a 95% humidified incubator for 24 hours before active addition. Tert butylhydroquinone (TBHQ) was used as an assay positive control. For performing the Nrf2 activity assay, the cells were lysed using Passive Lysis Buffer (PLB) (5×) procured from Promega. The PLB was diluted in a 1:5 ratio with distilled water to make 1× PLB solution. 20 μL of 1× PLB was added to each well of the 96 well plate, including 2 wells without cell (control wells). The plate was covered with aluminium foil to protect from light and incubated for 20 minutes at room temperature, on a rocker incubator. After 20 minutes, 18 μL of the cell lysate was transferred from the transparent 96 well cell culture plate to an opaque, white, flat bottom 96-well plate. The white flat bottom plates were proceeded for Luciferase assay. The Luciferase assay was performed by using Luciferase Assay System, from Promega. 80 μL of the Luciferase Reagent was added using the injector on the TECAN infinite M1000 instrument. Luminescence was measured for a period of 10 seconds using the Green 1 filter. The typical delay time of 2 seconds, and read time of 10 seconds was used. 4 readings were taken from each well within 1 min. The plate was advanced to the next well for a repeat of the inject-then-read process. The luciferase value was represented as fold change over control in Table 1.

Structure (SMILES)	Nrf2 activation fold increase wrt the control	Nrf2 activation Fold change wrt control (10 μM) [fold]
CCC/C=C/C=O [E-2-Hexenal]	1.1 fold	–
C=CC(C)(O)CCC=C(C)C (stereo not drawn) [Linalool]	barely any change	–
CC(C)(C)c1cc(O)ccc1O [TBHQ, Tert butylhydroquinone]	–	4.5
